For data set [1] the following is noted: in L mol-1 cm-1, cited from earlier work.
Data set [2] is described as follows: UV absorbance, molar absorptivity coefficients (ε) of the synthesized compounds. The class given is physicochemical. The method, then: The synthesized compounds 4c, 5, 6, 9, 10, 13a, 13b, 14, 20, 21, and 23, were analysed for their UV absorbances and their molar absorptivity coefficients (e) were determined.

Where two headings read alike, the source gives them in different places.

With `CCCCC(CC)COC(=O)C=Cc1ccc(OC)cc1` (centres unmarked) [2-ethylhexyl 4-methoxycinnamate], the “experimental molar absorption coefficient” value in data set [1] (at 356 nm) was 39,470.
`CCCCCCCCCCCCCCCc1cccc(O)c1C(=O)c1ccccc1O` [Compound 4c, [2-(Hydroxy)-6-pentadecylphenyl](2-hydroxyphenyl)methanone]: the “experimental ε value (molar absorptivity coefficient)” value (shortened to “experimental ε value”) in data set [2] (at 261 nm) is given as 36,366 L mol^−1 cm^−1; in data set [2] (at 335 nm), 10,538 L mol^−1 cm^−1.
As for `CCCCCCCCCCCCCCCc1cccc(O)c1C(=O)c1cc(OC)ccc1O` [Compound 5, (2-Hydroxy-5-methoxyphenyl)(2-hydroxy-6-pentadecylphenyl)methanone], the “ε value (molar absorptivity coefficient)” value is 18,439 L mol^−1 cm^−1 in data set [2] (at 265 nm) and 8,785 L mol^−1 cm^−1 in data set [2] (at 374 nm).
Take `CCCCCCCCCCCCCCCc1cccc(O)c1C(=O)c1cc(OC)c(OC)cc1O` [Compound 6, (2-Pentadecyl-6-hydroxyphenyl)(2-hydroxy-4,5-dimethoxyphenyl)methanone]: the “ε value (molar absorptivity coefficient)” value in data set [2] (at 287 nm) is on record as 34,096 L mol^−1 cm^−1; in data set [2] (at 358 nm) it was 25,014 L mol^−1 cm^−1.
Consider `CCCCCCCCCCCCCCCc1ccc(C(=O)c2ccccc2)c(O)c1` [Compound 9, (2-Hydroxy-4-pentadecylphenyl)(phenyl)methanone], for which, in data set [2] (at 279 nm), the “experimental ε value” value was 47,909 L mol^−1 cm^−1.
The compound `CCCCCCCCCCCCCCCc1ccc(C(=O)c2ccccc2O)c(O)c1` [Compound 10, (2-hydroxy-4-pentadecylphenyl)(2-hydroxyphenyl)methanone] registered an experimental ε value (molar absorptivity coefficient) in data set [2] (at 282 nm) of 31700 L/mol/cm.
As to `CCCCCCCCCCCCCCCc1ccc(C(=O)/C=C/c2ccccc2)c(O)c1` [Compound 13a, (E)-1-(2-hydroxy-4-pentadecylphenyl)-3-phenylprop-2-en-1-one], the “experimental ε value” value in data set [2] (at 314 nm) is on record as 20,403 L mol^−1 cm^−1.
In the case of `CCCCCCCCCCCCCCCc1ccc2c(=O)c(O)c(-c3ccccc3)oc2c1` [Compound 13b, 3-Hydroxy-7-pentadecyl-2-phenyl-4H-chromen-4-one], the experimental ε value (molar absorptivity coefficient) in data set [2] (at 314 nm) amounted to 39900 L/mol/cm; in data set [2] (at 345 nm) it was 45000 L/mol/cm.
Compound `CCCCCCCCCCCCCCCc1cc(O)c2c(=O)c3c(O)cccc3oc2c1` [Compound 14, 1,8-Dihydroxy-3-pentadecyl-9H-xanthen-9-one] came in with a ε value (molar absorptivity coefficient) in data set [2] (at 254 nm) of 23800 L/mol/cm.
Turning to `CCCCCCCCCCCCCCCc1ccc(-c2nc(-c3ccccc3)nc(-c3ccccc3)n2)c(O)c1` [Compound 20, 2-(4,6-Diphenyl-1,3,5-triazin-2-yl)-5-pentadecylphenol], the “ε value (molar absorptivity coefficient)” value in data set [2] (at 278 nm) is 29,252 L mol^−1 cm^−1.
With `CCCCCCCCCCCCCCCc1ccc(-c2nc(-c3ccc(CCCCCCCCCCCCCCC)cc3O)nc(-c3ccc(CCCCCCCCCCCCCCC)cc3O)n2)c(O)c1` [Compound 21, 6,6′,6″-(1,3,5-Triazine-2,4,6-triyl)tris(3-pentadecylphenol)], the “experimental ε value” value in data set [2] (at 300 nm) is 21,452 L mol^−1 cm^−1; in data set [2] (at 364 nm), 12500 L/mol/cm.
Turning to `CCCCCCCCCCCCCCCc1ccc(-c2nnc(-c3ccc(OC)c(OC)c3)o2)c(O)c1` [Compound 23, 2-[5-(3,4-Dimethoxyphenyl)-1,3,4-oxadiazol-2-yl]-5-pentadecylphenol], the entries for the “experimental ε value” value in data set [2] (at 293 nm) and in data set [2] (at 326 nm) were 3,373 L mol^−1 cm^−1 and 6,367 L mol^−1 cm^−1, respectively.
As to `COc1ccc(C(=O)CC(=O)c2ccc(C(C)(C)C)cc2)cc1` [avobenzone], the “experimental molar absorption coefficient” value in data set [1] (at 310 nm) is on record as 31,670.
As for `COc1ccc(C(=O)c2ccccc2)c(O)c1` [oxybenzone], the “experimental molar absorption coefficient” value in data set [1] (at 287 nm) is recorded as 15,150.

Values taken from patent publication US12275711B2, “Compounds having excited state intramolecular proton transfer (ESIPT) character for use in treating and/or preventing sunburn and/or preventing U.V. damage” (UNIVERSITY OF THE WITWATERSRAND, JOHANNESBURG, priority 2019, dated 2025).
